Measured values reported in patent publication US8148404B2, “Modulators of CB1 receptors” (7TM Pharma A/S, priority 2006, dated 2012).

target: T1, human CB1 receptor (Homo sapiens, UniProt P21554); assay: Cannabinoid Receptor-1 functional assay: inhibition of CP55940-induced [35S]GTPγS binding to membranes of CHO-K1 cells expressing human CB1; format: biochemical; conditions: 3 nM CP55940, [35S]GTPγS SPA, hCB1 membranes; read-out: IC50 value for antagonizing a CB1 receptor agonist
T1 construct: expressed in transfected cells; membranes used
Description: Transfection and Cell Culture—The cDNA encoding the human CB1 (Cannabinoid Receptor-1) receptor (GenBank accession number NM_016083) was cloned from a human adipose tissue cDNA library and cloned into the eukaryotic expression vector pcDNA3.1 (Invitrogen).
Chinese Hamster Ovary cells (CHO-K1) stably expressing recombinant human CB1 were generated by transfecting the plasmid containing the coding sequence of the human CB1 receptor in CHO-K1 cells, using lipofectamin, according to the manufacturer instructions. Resistant clones were selected in the presence of 600 μg/ml G418 (Life technology). Stably transfected CHO-K1 cells were maintained in Ham's F-12 culture medium (Invitrogen), supplemented with 10% fetal calf serum (Invitrogen), 100 U/ml penicillin, 100 μg/ml streptomycin (Life Technology), and 600 μg/ml G418.
Functional activities of the above examples of compounds of the invention were assessed in vitro by measuring their ability to inhibit CP55940-induced [^35S]GTPγS binding to membranes prepared from CHO-K1 cells expressing the human CB1 receptor (described in Transfection and Cell Culture). CP55940 is a well known non-selective CB1 and CB2 receptor agonist (e.g Felder et al., 1995, Molecular Pharmacology, (48) 443-50). Membranes were prepared by a standard procedure. Briefly, cells were harvested using 10 mM EDTA and collected by centrifugation. Pelleted cells were homogenized in ice-cold 20 mM Hepes (pH 7.4), 10 mM EDTA and protease inhibitors (Complete protease inhibitor cocktail tablet, Roche) using an Ultra Turrax Homogenizer. The homogenate was centrifuged at 14 000 rpm for 45 min. at 4° C. The resultant pellet was resuspended in the same buffer but with only 0.1 mM EDTA and was again centrifuged at 14 000 rpm for 45 min. at 4° C. The resulting pellet (membranes) was resuspended in 20 mM Hepes (pH 7.4), 0.1 mM EDTA, 2 mM MgCl2 and protease inhibitors and protein concentration was determined by Micro BCA Protein Assay Reagent Kit (Pierce Biotechnology) according to the manufacturer instructions. The [^35S]GTPγS SPA (Scintillation Proximity Assay) binding assay was performed by incubating 5 μg/well hCB1-membranes with 1 nM [^35S]GTPγS (Perkin Elmer—NEG 030H) in the presence of 3 nM of CP55940 and various concentrations of the test compounds at room temperature for 1 hr in 96-well microtiter plates. 0.4 mg/well SPA beads (PVT-WGA; RPNQ0001 Amersham Pharmacia Biotech) were then added and the incubation continued for further 30 min. on an orbital shaker. The assay buffer contained 50 mM HEPES (pH 7.5), 50 mM NaCl, 2.5 mM MgCl2, 0.1% BSA, 1 μM GDP and 100 μg/ml Saponin. Microtiter plates were centrifuged at 1500 rpm for 5 min. and radioactivity was read immediately using a Topcounter (PerkinElmer Life Sciences). Data were analyzed and IC50 values determined by non-linear regression using the Prism software (GraphPad Software, San Diego).

T1 sequence (P21554 whole entry): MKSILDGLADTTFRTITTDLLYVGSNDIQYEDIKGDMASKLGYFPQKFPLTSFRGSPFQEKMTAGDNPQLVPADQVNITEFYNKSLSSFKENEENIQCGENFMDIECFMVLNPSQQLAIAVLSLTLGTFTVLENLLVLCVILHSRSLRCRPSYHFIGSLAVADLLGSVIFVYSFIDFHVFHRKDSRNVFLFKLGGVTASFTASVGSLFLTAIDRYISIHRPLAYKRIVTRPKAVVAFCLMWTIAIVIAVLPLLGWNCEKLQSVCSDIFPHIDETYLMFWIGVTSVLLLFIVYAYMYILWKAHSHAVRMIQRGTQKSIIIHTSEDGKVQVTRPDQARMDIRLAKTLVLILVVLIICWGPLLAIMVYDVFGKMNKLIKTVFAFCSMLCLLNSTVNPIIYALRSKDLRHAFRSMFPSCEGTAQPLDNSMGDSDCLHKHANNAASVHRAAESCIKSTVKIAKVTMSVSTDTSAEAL

Structure (SMILES) | IC50 [nM]
CO[C@H]1CN(C(=O)c2nn(-c3ccccc3Cl)c(-c3ccc(Cl)cc3)c2CC(=O)O)CC[C@@H]1c1ccccc1 (relative stereo) [[1.56], {1-(2-Chloro-phenyl)-5-(4-chloro-phenyl)-3-[trans-4-phenyl-3-methoxy-piper-idine-1-carbonyl]-1H-pyrazol-4-yl}-acetic acid] | < 300
O=C(O)Cc1c(C(=O)N2CC=C(c3ccccc3)CC2)nn(-c2ccccc2Cl)c1-c1ccc(Cl)cc1 [Compound [1.1], [1-(2-Chloro-phenyl)-5-(4-chloro-phenyl)-3-(4-phenyl-3,6-dihydro-2H-pyridine-1-carbonyl)-1H-pyrazol-4-yl]-acetic acid] | < 300
O=C(O)Cc1c(C(=O)N2CCN(c3ccccc3)CC2)nn(-c2ccccc2Cl)c1-c1ccc(Cl)cc1 [Compound [1.2], [1-(2-Chloro-phenyl)-5-(4-chloro-phenyl)-3-(4-phenyl-piperazine-1-carbonyl)-1H-pyrazol-4-yl]-acetic acid] | 300 to 3000
O=C(O)COc1c(C(=O)N2CCC(c3ccc(F)cc3)CC2)nn(-c2ccccc2Cl)c1-c1ccc(Cl)cc1 [Compound [1.3], {5-(4-Chloro-phenyl)-1-(2-chloro-phenyl)-3-[4-(4-fluoro-phenyl)-piper-idine-1-carbonyl]-1H-pyrazol-4-yloxy}-acetic acid] | < 300
O=C(O)Cc1c(C(=O)N2CCC(O)(c3cccnc3)CC2)nn(-c2ccccc2Cl)c1-c1ccc(Cl)cc1 [Compound [1.8], [1-(2-Chloro-phenyl)-5-(4-chloro-phenyl)-3-(4′-hydroxy-3′,4′,5′,6′-tetrahydro-2′H-[3,4′]bipyridinyl-1′-carbonyl)-1H-pyrazol-4yl]-acetic acid] | 3000 to 10000
O=C(O)Cc1c(C(=O)N2CCC(c3cccc(F)c3)CC2)nn(-c2ccccc2Cl)c1-c1ccc(Cl)cc1 [Compound [1.13], {1-(2-Chloro-phenyl)-5-(4-chloro-phenyl)-3-[4-(3-fluoro-phenyl)-piper-idine-1-carbonyl]-1H-pyrazol-4-yl}-acetic acid] | < 300
CC(C(=O)O)c1c(C(=O)N2CCC(c3ccccc3F)CC2)nn(-c2ccccc2Cl)c1-c1ccc(Cl)cc1 (stereo not drawn) [Compound [1.52], 2-{1-(2-Chloro-phenyl)-5-(4-chloro-phenyl)-3-[4-(2-fluoro-phenyl)-piperidine-1-carbonyl]-1H-pyrazol-4-yl}-propionic acid] | < 300
O=C(O)C(O)c1c(C(=O)N2CCC(c3ccccc3F)CC2)nn(-c2ccccc2Cl)c1-c1ccc(Cl)cc1 (stereo not drawn) [Compound [1.65], {1-(2-Chloro-phenyl)-5-(4-chloro-phenyl)-3-[4-(2-fluoro-phenyl)-piperidine-1-carbonyl]-1H-pyrazol-4-yl}-2-hydroxy acetic acid] | < 300
O=C(c1nn(-c2ccccc2Cl)c(-c2ccc(Cl)cc2)c1Cc1nn[nH]n1)N1Cc2ccc(F)cc2C1 [Compound [3.1], [5-(4-Chloro-phenyl)-1-(2-chloro-phenyl)-4-(2H-tetrazol-5-ylmethyl)-1H-pyrazol-3-yl]-(5-fluoro-1,3-dihydro-isoindol-2-yl)-methanone] | 300 to 3000
O=C(O)Cc1c(C(=O)N2CCc3ccccc3C2)nn(-c2ccccc2Cl)c1-c1ccc(Cl)cc1 [[1.4], [5-(4-Chloro-phenyl)-1-(2-chloro-phenyl)-3-(3,4-dihydro-1H-isoquinoline-2-carbonyl)-1H-pyrazol-4-yl]-acetic acid] | < 300
O=C(O)Cc1c(C(=O)N2CCC(c3ccc(F)cc3)CC2)nn(-c2ccccc2Cl)c1-c1ccc(Cl)cc1 [[1.5], {5-(4-Chloro-phenyl)-1-(2-chloro-phenyl)-3-[4-(4-fluoro-phenyl)-piperidine-1-carbonyl]-1H-pyrazol-4-yl}-acetic acid] | < 300
O=C(O)Cc1c(C(=O)N2CCC(O)(Cc3ccccc3)CC2)nn(-c2ccccc2Cl)c1-c1ccc(Cl)cc1 [[1.6], [3-(4-Benzyl-4-hydroxy-piperidine-1-carbonyl)-5-(4-chloro-phenyl)-1-(2-chloro-phenyl)-1H-pyrazol-4-yl]-acetic acid] | < 300
O=C(O)Cc1c(C(=O)N2CCC(O)(c3ccc(F)cc3)CC2)nn(-c2ccccc2Cl)c1-c1ccc(Cl)cc1 [[1.7], {1-(2-Chloro-phenyl)-5-(4-chloro-phenyl)-3-[4-(4-fluoro-phenyl)-4-hydroxy-piperidine-1-carbonyl]-1H-pyrazol-4-yl}-acetic acid] | < 300
O=C(O)Cc1c(C(=O)N2CCC(O)(c3ccccn3)CC2)nn(-c2ccccc2Cl)c1-c1ccc(Cl)cc1 [[1.9], [1-(2-Chloro-phenyl)-5-(4-chloro-phenyl)-3-(4′-hydroxy-3′,4′,5′,6′-tetrahydro-2′H-[2,4′]bipyridinyl-1′-carbonyl)-1H-pyrazol-4yl]-acetic acid] | 300 to 3000
O=C(O)Cc1c(C(=O)N2CCC(O)(c3ccc(C(F)(F)F)cc3)CC2)nn(-c2ccccc2Cl)c1-c1ccc(Cl)cc1 [[1.10], {1-(2-Chloro-phenyl)-5-(4-chloro-phenyl)-3-[4-hydroxy-4-(4-trifluoromethyl-phenyl)-piperidine-1-carbonyl]-1H-pyrazol-4-yl}-acetic acid] | < 300
O=C(O)Cc1c(C(=O)N2CCC(O)(c3cccc(C(F)(F)F)c3)CC2)nn(-c2ccccc2Cl)c1-c1ccc(Cl)cc1 [[1.11], {1-(2-Chloro-phenyl)-5-(4-chloro-phenyl)-3-[4-hydroxy-4-(3-trifluoromethyl-phenyl)-piperidine-1-carbonyl]-1H-pyrazol-4-yl}-acetic acid] | < 300
O=C(O)Cc1c(C(=O)N2CCC(O)(c3ccc(Cl)cc3)CC2)nn(-c2ccccc2Cl)c1-c1ccc(Cl)cc1 [[1.12], {1-(2-Chloro-phenyl)-5-(4-chloro-phenyl)-3-[4-(4-chloro-phenyl)-4-hydroxy-piperidine-1carbonyl]-1H-pyrazol-4-yl}-acetic acid] | < 300
O=C(O)Cc1c(C(=O)N2CCC(O)(c3ccccc3)CC2)nn(-c2ccccc2Cl)c1-c1ccc(Cl)cc1 [[1.14], [1-(2-Chloro-phenyl)-5-(4-chloro-phenyl)-3-(4-hydroxy-4-phenyl-piperidine-1-carbonyl)-1H-pyrazol-4-yl]-acetic acid] | < 300
O=C(O)Cc1c(C(=O)N2CCC(c3ccc(F)cc3)C2)nn(-c2ccccc2Cl)c1-c1ccc(Cl)cc1 (stereo not drawn) [[1.15], {1-(2-Chloro-phenyl)-5-(4-chloro-phenyl)-3-[3-(4-fluoro-phenyl)-pyrrol-idine-1-carbonyl]-1H-pyrazol-4-yl}-acetic acid] | < 300
O=C(O)Cc1c(C(=O)N2CCN(c3ncccn3)CC2)nn(-c2ccccc2Cl)c1-c1ccc(Cl)cc1 [[1.16], [5-(4-Chloro-phenyl)-1-(2-chloro-phenyl)-3-(4-pyrimidin-2-yl-piperazine-1-carbonyl)-1H-pyrazol-4-yl]-acetic acid] | 300 to 3000
COC1(c2ccc(F)cc2)CCN(C(=O)c2nn(-c3ccccc3Cl)c(-c3ccc(Cl)cc3)c2CC(=O)O)CC1 [[1.17], {5-(4-Chloro-phenyl)-1-(2-chloro-phenyl)-3-[4-(4-fluoro-phenyl)-4-methoxy-piperidine-1carbonyl]-1H-pyrazol-4-yl}-acetic acid] | < 300
Cc1noc(C2CCN(C(=O)c3nn(-c4ccccc4Cl)c(-c4ccc(Cl)cc4)c3CC(=O)O)CC2)n1 [[1.20], {1-(2-Chloro-phenyl)-5-(4-chloro-phenyl)-3-[4-(3-methyl-[1,2,4]oxadiazol-5-yl)-piperidine-1-carbonyl]-1H-pyrazol-4-yl}-acetic acid] | 300 to 3000
O=C(O)Cc1c(C(=O)N2CCC(O)(c3ccccc3F)CC2)nn(-c2ccccc2Cl)c1-c1ccc(Cl)cc1 [[1.21], {1-(2-Chloro-phenyl)-5-(4-chloro-phenyl)-3-[4-(2-fluoro-phenyl)-4-hydroxy-piperidine-1carbonyl]-1H-pyrazol-4-yl}-acetic acid] | < 300
Cc1ccc(C2(O)CCN(C(=O)c3nn(-c4ccccc4Cl)c(-c4ccc(Cl)cc4)c3CC(=O)O)CC2)nc1 [[1.22], [5-(4-Chloro-phenyl)-1-(2-chloro-phenyl)-3-(4′-hydroxy-5-methyl-3′,4′,5′,6′-tetrahydro-2′H-[2,4′]bipyridinyl-1′-carbonyl)-1H-pyrazol-4-yl]-acetic acid] | 300 to 3000
